Test results as given in US20080187512A1, “Treatment for spinal muscular atrophy” (Academia Sinica, priority 2007, published 2008).

Columns and labels:
Type in all cases: cell-based, mouse
SMN2 = SMN2 splicing pattern, semi-quantitative RT-PCR in SMA-like MEFs; set-up: key to SMN2 splicing pattern MEF: −: no effect; +: effective; +++: most effective
Stat6 (pT641) = test: Signaling pathway screen in SMN2-NSC34 cells
Stat5 (pT694) = test: Signaling pathway screen in SMN2-NSC34 cells; set-up: Stat5 (pT694) cellular response: key: −: decreasing; +/−: no activation; +: slight activation; ++: minor activation; +++: significant activation
Description: (§1) Western blot analysis. Cells treated by dsRNA, compounds or Stat5A1*6 transfected were detached by scraping, pelletting and rinsing in PBS. Cell pellets were collected after centrifugation and lysed on ice in modified RIPA buffer (50 mM Tris-HCl (pH7.4), 1% NP-40, 0.25% deoxycholic acid, 0.15M NaCl, 1 mM EDTA, 1 mM PMSF/NaF/sodium orthovanadate, and protease inhibitors cocktail (Roche, Mannheim, Germany) for 30 min. After centrifugation, the supernatants were collected and kept frozen at −20° C. Protein concentrations were determined by Bio-Rad protein assay method. For Western blot analysis, protein samples were boiled for 5 min and electrophoresed on 8% or 10% SDS-polyacrylamide gel in a 1× running buffer (25 mM Tris, 192 mM glycine, 3.4 mM SDS, pH 8.3) and subsequently electrotransferred to Polyvinylidene Fluoride tansfer membrane (Pall, Pensacola, Fla.) using a TE 22 mini-tank transfer unit (Amersham Biosciences, San Francisco, Calif.) at 35 volts overnight in transfer buffer (25 mM Tris, 192 mM glycine, 20% methanol, pH8.3). The blotting membranes were incubated in blocking solution (PBS, 5% non-fat milk, 0.2% Tween-20) for 1 hour at room temperature, and then incubated in the same solution with the primary antibody (human-specific SMN/1:1000; SMN/1:5000, Transduction Laboratories, Lexington, Ky.; phospho-Stat5a/b/1:1000, Cell signaling, Beverly, Mass.; phospho-Jak2/1:1000, Upstate, Lake Placid, N.Y.; Flag BioM2/1:1000, Sigma, St. Louis, MO; c-myc/1:200, Santa Cruz Biotech, Santa Cruz, Calif.; α-Tubilin/1:10000, Upstate, Lake Placid, N.Y., MO), overnight at 4° C. The membranes were washed and incubated in the blocking solution with the proper HRP-conjugated secondary antibody at 1/5000 dilution (Chemicon, Temecula, Calif.) for 1 hour at room temperature. After washing three times in PBS containing 0.1% Tween-20, the signals were visualized by autoradiography (Fuji Medical X-ray film, Fuji Photos, Tokyo) using enhanced chemi-luminescence (ECL detection system; Perkin-Elmer, Boston, Calif.). Western blot quantification was performed by scanning the auto-radiographs with a computerized densitometer. Signal intensities were determined by densitometry analysis (Fuji film LAS-1000 plus pictography) using the program Phoreticx 1D (Phoreticx International).
(§2) Therefore, TSA, aclarubicin and sodium vanadate all induce the activation of Stat5A in motor neuron-like NSC34 cells.

Jak2 (pY1007/pY1008) = test: Signaling pathway screen in SMN2-NSC34 cells; for Jak2 (pY1007/pY1008) cellular response: key: −: decreasing; +/−: no activation; +: slight activation; ++: minor activation; +++: significant activation
Description: as §1, §2

Sodium vanadate
SMN2 splicing pattern MEF (SMN2): +++
influence on SMN2 expression (SMN2): found to influence SMN2 expression
Stat6 (pT641) cellular response (Stat6 (pT641); 4 hrs): −
Stat6 (pT641) cellular response (Stat6 (pT641); 8 hrs): −
Stat5 (pT694) cellular response (Stat5 (pT694)): ++ and +++
Stat5 phosphorylation status at 8 hours (Stat5 (pT694)): remained activated
phosphorylation level of Stat5 increased compared to control cells (Stat5 (pT694)): about 6 fold
Jak2 (pY1007/pY1008) cellular response (Jak2 (pY1007/pY1008)): + and ++
Jak2 activation (Jak2 (pY1007/pY1008)): found activated
